Laboratory results reported in patent publication US10369138B2, “Monobactam organic compounds for the treatment of bacterial infections” (Novartis AG, priority 2014, dated 2019).
Values after ≈ are worked out from the molar mass of the structure shown. Read-outs that look alike come from different tables or passages of the source.

Assays:
E. coli strain 25922 = test: MIC by broth microdilution, E. coli strain 25922; assay type: cell-based
Summary of the method: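 CLSI broth microdilution in cation-adjusted Mueller-Hinton broth, inoculum about 5×10^5 CFU/mL, 10% DMSO from the diluted series, 20 h at 35-37° C. MIC is the lowest concentration preventing visible growth, read by eye and at 600 nm.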

E. coli containing KPC-2 = test: MIC by broth microdilution, E. coli containing KPC-2 (Ec KPC2 Iso); assay type: cell-based; settings: Escherichia coli, read-out: Ec KPC2 Iso (MIC), E. coli containing KPC-2 (carbapenemase from Klebsiella pneumoniae)
Summary of the method: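 Host E. coli BW25113 pspB carrying multicopy pBAD18-kan plasmid with constitutive TEM-promoter KPC-2 expression (periplasmic signal sequence); broth microdilution per CLSI in cation-adjusted Mueller-Hinton broth, inoculum ~5×10^5 CFU/mL, compounds twofold serially diluted from DMSO masters (10% DMSO in dilution series added).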

[1] = Escherichia coli, 25922, E. coli strain 25922, read-out: Ec 25922 (MIC)

Compound | MIC (E. coli strain 25922; [1]) [µg/mL] | MIC (E. coli containing KPC-2) [µg/mL] | MIC (E. coli strain 25922; Escherichia coli, 25922, read-out: Ec 25922 (MIC)) [µg/mL]
Nc1nc(/C(=N/OC2(C(=O)O)CC2)C(=O)N[C@@H]2C(=O)N(S(=O)(=O)O)[C@@H]2CN2C(=O)COC2=O)cs1 [Example 95, 1-(((Z)-(1-(2-aminothiazol-4-yl)-2-(((2R,3S)-2-((2,4-dioxooxazolidin-3-yl)methyl)-4-oxo-1-sulfoazetidin-3-yl)amino)-2-oxoethylidene)amino)oxy)cyclopropanecarboxylic acid] | 0.25 (≈ 0.47 µM) | 0.125 (≈ 0.235 µM) | 
NCCCNCc1nnn(C[C@@H]2[C@H](NC(=O)/C(=N\OC3(C(=O)O)CC3)c3csc(N)n3)C(=O)N2S(=O)(=O)O)n1 [Example 96, 1-(((Z)-(2-(((2R,3S)-2-((5-(((3-aminopropyl)amino)methyl)-2H-tetrazol-2-yl)methyl)-4-oxo-1-sulfoazetidin-3-yl)amino)-1-(2-aminothiazol-4-yl)-2-oxoethylidene)amino)oxy)cyclopropanecarboxylic acid] | 0.25 (≈ 0.425 µM) | 1 (≈ 1.7 µM) | 
NCCNC[C@@H]1CN(C[C@@H]2[C@H](NC(=O)/C(=N\OC3(C(=O)O)CC3)c3csc(N)n3)C(=O)N2S(=O)(=O)O)C(=O)O1 [Example 97, 1-(((Z)-(2-(((2R,3S)-2-(((R)-5-(((2-aminoethyl)amino)methyl)-2-oxooxazolidin-3-yl)methyl)-4-oxo-1-sulfoazetidin-3-yl)amino)-1-(2-aminothiazol-4-yl)-2-oxoethylidene)amino)oxy)cyclopropanecarboxylic acid] |  | 0.125 (≈ 0.212 µM) | 0.125 (≈ 0.212 µM)
Cn1cnn(C[C@@H]2[C@H](NC(=O)/C(=N\OC(C)(C)C(=O)O)c3csc(N)n3)C(=O)N2S(=O)(=O)O)c1=O [Example 98, 2-(((Z)-(1-(2-aminothiazol-4-yl)-2-(((2R,3S)-2-((4-methyl-5-oxo-4,5-dihydro-1H-1,2,4-triazol-1-yl)methyl)-4-oxo-1-sulfoazetidin-3-yl)amino)-2-oxoethylidene)amino)oxy)-2-methylpropanoic acid] | 2 (≈ 3.76 µM) | 0.5 (≈ 0.939 µM) | 
CN(C)Cc1cnn(C[C@@H]2[C@H](NC(=O)/C(=N\OC(C)(C)C(=O)O)c3csc(N)n3)C(=O)N2S(=O)(=O)O)n1 [Example 99, 2-(((Z)-(1-(2-aminothiazol-4-yl)-2-(((2R,3S)-2-((4-((dimethylamino)methyl)-2H-1,2,3-triazol-2-yl)methyl)-4-oxo-1-sulfoazetidin-3-yl)amino)-2-oxoethylidene)amino)oxy)-2-methylpropanoic acid] | 2 (≈ 3.57 µM) | 4 (≈ 7.15 µM) | 
CNCc1cnn(C[C@@H]2[C@H](NC(=O)/C(=N\OC(C)(C)C(=O)O)c3csc(N)n3)C(=O)N2S(=O)(=O)O)n1 [Example 100, 2-(((Z)-(1-(2-aminothiazol-4-yl)-2-(((2R,3S)-2-((4-((methylamino)methyl)-2H-1,2,3-triazol-2-yl)methyl)-4-oxo-1-sulfoazetidin-3-yl)amino)-2-oxoethylidene)amino)oxy)-2-methylpropanoic acid] | 1 (≈ 1.83 µM) | 4 (≈ 7.33 µM) | 
CC(C)(O/N=C(\C(=O)N[C@@H]1C(=O)N(S(=O)(=O)O)[C@@H]1Cc1cn(CCN)nn1)c1csc(N)n1)C(=O)O [Example 101, 2-(((Z)-(2-(((2R,3S)-2-((1-(2-aminoethyl)-1H-1,2,3-triazol-4-yl)methyl)-4-oxo-1-sulfoazetidin-3-yl)amino)-1-(2-aminothiazol-4-yl)-2-oxoethylidene)amino)oxy)-2-methylpropanoic acid] | 1 (≈ 1.83 µM) | 1 (≈ 1.83 µM) | 
NCCNCc1cnn(C[C@@H]2[C@H](NC(=O)/C(=N\OC3(C(=O)O)CC3)c3csc(N)n3)C(=O)N2S(=O)(=O)O)n1 [Example 102, 1-(((Z)-(2-(((2R,3S)-2-((4-(((2-aminoethyl)amino)methyl)-2H-1,2,3-triazol-2-yl)methyl)-4-oxo-1-sulfoazetidin-3-yl)amino)-1-(2-aminothiazol-4-yl)-2-oxoethylidene)amino)oxy)cyclopropanecarboxylic acid] | 0.25 (≈ 0.437 µM) | 0.25 (≈ 0.437 µM) | 
N=CNC[C@@H]1CN(C[C@@H]2[C@H](NC(=O)/C(=N\OC3(C(=O)O)CC3)c3csc(N)n3)C(=O)N2S(=O)(=O)O)C(=O)O1 [Example 104, 1-(((Z)-(1-(2-aminothiazol-4-yl)-2-(((2R,3S)-2-(((R)-5-(formimidamidomethyl)-2-oxooxazolidin-3-yl)methyl)-4-oxo-1-sulfoazetidin-3-yl)amino)-2-oxoethylidene)amino)oxy)cyclopropanecarboxylic acid] | > 64 | > 64 | 
CC(C)(O/N=C(\C(=O)N[C@@H]1C(=O)N(S(=O)(=O)O)[C@@H]1Cn1cnc(C#N)n1)c1csc(N)n1)C(=O)O [Example 105, 2-(((Z)-(1-(2-aminothiazol-4-yl)-2-(((2R,3S)-2-((3-cyano-1H-1,2,4-triazol-1-yl)methyl)-4-oxo-1-sulfoazetidin-3-yl)amino)-2-oxoethylidene)amino)oxy)-2-methylpropanoic acid] | 16 (≈ 30.3 µM) | 32 (≈ 60.7 µM) | 
Nc1nc(/C(=N/OC2(C(=O)O)CC2)C(=O)N[C@@H]2C(=O)N(S(=O)(=O)O)[C@@H]2Cn2ncc(CN3CC(N)C3)n2)cs1 [Example 106, 1-(((Z)-(2-(((2R,3S)-2-((4-((3-aminoazetidin-1-yl)methyl)-2H-1,2,3-triazol-2-yl)methyl)-4-oxo-1-sulfoazetidin-3-yl)amino)-1-(2-aminothiazol-4-yl)-2-oxoethylidene)amino)oxy)cyclopropanecarboxylic acid] | ≤ 0.06 | ≤ 0.06 | 
N=C(N)c1ccc(OC[C@H](O/N=C(\C(=O)N[C@@H]2C(=O)N(S(=O)(=O)O)[C@@H]2Cn2cncn2)c2csc(N)n2)C(=O)O)cc1 [Example 107, (S)-2-(((Z)-(2-(((2R,3S)-2-((1H-1,2,4-triazol-1-yl)methyl)-4-oxo-1-sulfoazetidin-3-yl)amino)-1-(2-aminothiazol-4-yl)-2-oxoethylidene)amino)oxy)-3-(4-carbamimidoylphenoxy)propanoic acid] | 0.25 (≈ 0.402 µM) | 0.25 (≈ 0.402 µM) | 
Nc1nc(/C(=N/OC2(C(=O)O)CC2)C(=O)N[C@@H]2C(=O)N(S(=O)(=O)O)[C@@H]2CN2CCNC2=O)cs1 [Example 108, 1-(((Z)-(1-(2-aminothiazol-4-yl)-2-oxo-2-(((3S,4R)-2-oxo-4-((2-oxoimidazolidin-1-yl)methyl)-1-sulfoazetidin-3-yl)amino)ethylidene)amino)oxy)cyclopropanecarboxylic acid] | 0.125 (≈ 0.242 µM) | ≤ 0.06 | 
NCc1nn(C[C@@H]2[C@H](NC(=O)/C(=N\OC3(C(=O)O)CC3)c3csc(N)n3)C(=O)N2S(=O)(=O)O)nc1CN [Example 109, 1-(((Z)-(1-(2-aminothiazol-4-yl)-2-(((2R,3S)-2-((4,5-bis(aminomethyl)-2H-1,2,3-triazol-2-yl)methyl)-4-oxo-1-sulfoazetidin-3-yl)amino)-2-oxoethylidene)amino)oxy)cyclopropanecarboxylic acid] | 0.125 (≈ 0.224 µM) | 0.25 (≈ 0.448 µM) | 
NCCNC(=O)NC[C@@H]1CN(C[C@@H]2[C@H](NC(=O)/C(=N\OC3(C(=O)O)CC3)c3csc(N)n3)C(=O)N2S(=O)(=O)O)C(=O)O1 [Example 111, 1-(((Z)-(2-(((2R,3S)-2-(((R)-5-((3-(2-aminoethyl)ureido)methyl)-2-oxooxazolidin-3-yl)methyl)-4-oxo-1-sulfoazetidin-3-yl)amino)-1-(2-aminothiazol-4-yl)-2-oxoethylidene)amino)oxy)cyclopropanecarboxylic acid] | ≤ 0.06 | ≤ 0.06 | 
Nc1nc(/C(=N/OC2(C(=O)O)CC2)C(=O)N[C@@H]2C(=O)N(S(=O)(=O)O)[C@@H]2Cn2ncc(CNC3CCNCC3)n2)cs1 [Example 112, 1-(((Z)-(1-(2-aminothiazol-4-yl)-2-oxo-2-(((3S,4R)-2-oxo-4-((4-((piperidin-4-ylamino)methyl)-2H-1,2,3-triazol-2-yl)methyl)-1-sulfoazetidin-3-yl)amino)ethylidene)amino)oxy)cyclopropanecarboxylic acid] | 0.5 (≈ 0.816 µM) | 0.5 (≈ 0.816 µM) | 
CC(C)(O/N=C(\C(=O)N[C@@H]1C(=O)N(S(=O)(=O)O)[C@@H]1CN1CCC1=O)c1csc(N)n1)C(=O)O [Example 113, 2-(((Z)-(1-(2-aminothiazol-4-yl)-2-oxo-2-(((3S,4R)-2-oxo-4-((2-oxoazetidin-1-yl)methyl)-1-sulfoazetidin-3-yl)amino)ethylidene)amino)oxy)-2-methylpropanoic acid] | 4 (≈ 7.93 µM) | 4 (≈ 7.93 µM) | 
N=C(N)NCCCNCc1cnn(C[C@@H]2[C@H](NC(=O)/C(=N\OC3(C(=O)O)CC3)c3csc(N)n3)C(=O)N2S(=O)(=O)O)n1 [Example 114, 1-(((Z)-(1-(2-aminothiazol-4-yl)-2-(((2R,3S)-2-((4-(((3-guanidinopropyl)amino)methyl)-2H-1,2,3-triazol-2-yl)methyl)-4-oxo-1-sulfoazetidin-3-yl)amino)-2-oxoethylidene)amino)oxy)cyclopropanecarboxylic acid] | 0.25 (≈ 0.398 µM) | ≤ 0.06 | 
CN(CCCN)Cc1cnn(C[C@@H]2[C@H](NC(=O)/C(=N\OC3(C(=O)O)CC3)c3csc(N)n3)C(=O)N2S(=O)(=O)O)n1 [Example 115, 1-(((Z)-(2-(((2R,3S)-2-((4-(((3-aminopropyl)(methyl)amino)methyl)-2H-1,2,3-triazol-2-yl)methyl)-4-oxo-1-sulfoazetidin-3-yl)amino)-1-(2-aminothiazol-4-yl)-2-oxoethylidene)amino)oxy)cyclopropanecarboxylic acid] | 0.125 (≈ 0.208 µM) | 0.25 (≈ 0.416 µM) | 
